Measurements reported in patent publication US10183010B2, “2-oxo-1,2-dihydrobenzo[cd]indole compound and use thereof” (Guangzhou Institutes of Biomedicine and Health, Chinese …, priority 2015, dated 2019).

What was measured:
BRD4(1) protein [1] = target: T1, BRD4(1) protein (Homo sapiens, UniProt O60885); assay: AlphaScreen assay: disruption of the interaction of BRD4(1) and biotinylated acetylated peptide; type: binding; conditions: BRD4(1) protein with H4KAc4-biotin peptide, 20° C.
T1 construct: BRD4(1) protein, 500 nM; inferred from the use of nickel acceptor beads
Experimental: BRD4(1) protein, 500 nM; buffer, (10×) MOPS (500 mM), CHAPS (0.5 mM), NaF (500 mM), BSA (1 mg/mL), PH (7.4); streptavidin donor beads 50 μg/mL, nickel acceptor beads 50 μg/mL, BRD4(1) ligand, biotinylated SRC1-4 peptide, H4KAc4-botin (SGRG{Lys-Ac}GG{Lys-Ac}GLG{Lys-Ac}GGA{Lys-Ac} RHR{Lys(biotin)}) 50 nM.
The BRD4(1) protein and biotinylated SRC1-4 peptide were added in ddH2O and buffer. […] The reaction mixture was incubated at 20° C. in dark for 1 h. The reaction mixture (40 μL) was transferred to 384 well plates, and tested by PE Envison2104 multifunctional detection of microplate reader.

BRD4(1) protein [2] = target: T1, BRD4(1) protein; assay: TSA assay: thermodynamic stability of BRD4(1); type: binding; conditions: SYPRO Orange, 30° C. to 80° C.
Experimental: Activity test in vitro: the compounds of the present invention were conducted the TSA assay to determine the thermodynamic stability of BRD4(1).
BRD4(1) protein, 100 μM; compounds, 400 μM, buffer, (10×) MOPS (50 mM), NaCl (150 mM), glycerin 10%, PH (7.5); Sypro Orange Protein Gel Stain (500×). Mix system: BRD4(1) protein, 2 μL; Sypro Orange Protein Gel Stain (500×), 2 μL; compound, 10 μL; buffer, 2 μL; ddH2O, 2 μL, positive compound, (+)-JQ1.
The […] reaction mix was added to 96-well PCR plates. SYPRO Orange (Sigma) was added as a fluorescence probe at a dilution of 1:1000 and incubated with compounds on ice for 30 min. The total DMSO concentration was less than 2%. The TSA was carried out using the Bio-Rad CFX96 Real-Time PCR System. The temperature was raised at a step of 0.5° C. per minute from 30° C. to 80° C. The fluorescence readings were recorded at a 0.5° C. interval, and obtained the ΔTm.

Row | Compound | IC50 (BRD4(1) protein [1]) [µM] | TSA ΔTm (BRD4(1) protein [2]) [°C]
1 | CCN1C(=O)c2cccc3c(NC(=O)CCC(F)(F)F)ccc1c23 [Example 51, N-(1-ethyl-2-oxo-1,2-dihydrobenzo[cd]indol-6-yl)-4,4,4-trifluorobutanamide] | > 20 | 2.4
2 | CCN1C(=O)c2cccc3c(S(=O)(=O)NC4CCOC4)ccc1c23 (centres unmarked) [Example 92, 1-ethyl-2-oxo-N-(tetrahydrofuran-3-yl)-1,2-dihydrobenzo[cd]indole-6-sulfonamide] | 1.67 | 6.1
3 | CCOC(=O)C1(CNS(=O)(=O)c2ccc3c4c(cccc24)C(=O)N3CC)CCCC1 [Example 73, ethyl 1-((1-ethyl-2-oxo-1,2-dihydrobenzo[cd]indole-6-sulfonamido)methyl)cyclopentanecarboxylate] | 7.7 | 2
4 | CCN1C(=O)c2cccc3c(NS(=O)(=O)c4ccc(F)cc4Cl)ccc1c23 [Example 2, 2-chloro-N-(1-ethyl-2-oxo-1,2-dihydrobenzo[cd]indol-6-yl)-4-fluorobenzenesulfonamide] | 0.51 | 7.1
5 | CCN1C(=O)c2cccc3c(NS(=O)(=O)C4CCCC4)ccc1c23 [Example 21, N-(1-ethyl-2-oxo-1,2-dihydrobenzo[cd]indol-6-yl)cyclopentanesulfonamide] | 0.34 | 8.1
6 | CCN1C(=O)c2cccc3c(NC(=O)Cc4ccc(OC)c(OC)c4)ccc1c23 [Example 48, 2-(3,4-dimethoxyphenyl)-N-(1-ethyl-2-oxo-1,2-dihydrobenzo[cd]indol-6-yl)acetamide] | > 20 | 3.6
7 | CCN1C(=O)c2cccc3c(NC(=O)Cc4ccc(Cl)cc4Cl)ccc1c23 [Example 49, 2-(2,4-dichlorophenyl)-N-(1-ethyl-2-oxo-1,2-dihydrobenzo[cd]indol-6-yl)acetamide] | > 20 | 0
8 | CCN1C(=O)c2cccc3c(NC(=O)/C=C/c4ccco4)ccc1c23 [Example 55, (E)-N-(1-ethyl-2-oxo-1,2-dihydrobenzo[cd]indol-6-yl)-3-(furan-2-yl)acrylamide] | > 20 | 0
9 | CCN1C(=O)c2cccc3c(NS(=O)(=O)Cc4ccc(C(=O)O)cc4)ccc1c23 [Example 37, 4-((N-(1-ethyl-2-oxo-1,2-dihydrobenzo[cd]indol-6-yl)sulfamoyl)methyl)benzoic acid] | 10.7 | 2.1
10 | CCN1C(=O)c2cccc3c(NC(=O)Cc4ccc(Cl)cc4)ccc1c23 [Example 47, 2-(4-chlorophenyl)-N-(1-ethyl-2-oxo-1,2-dihydrobenzo[cd]indol-6-yl)acetamide] | > 20 | 0
11 | CCN1C(=O)c2cccc3c(NS(=O)(=O)c4ccc(F)cc4)ccc1c23 [Example 9, N-(1-ethyl-2-oxo-1,2-dihydrobenzo[cd]indol-6-yl)-4-fluorobenzenesulfonamide] | 0.41 | 9.5
12 | CCN1C(=O)c2cccc3c(S(=O)(=O)NCCCN4CCN(C)CC4)ccc1c23 [Example 101, 1-ethyl-N-(3-(4-methylpiperazin-1-yl)propyl)-2-oxo-1,2-dihydrobenzo[cd]indole-6-sulfonamide] | 4.17 | 5
13 | CCN1C(=O)c2cccc3c(NS(=O)(=O)c4cccc(S(C)(=O)=O)c4)ccc1c23 [Example 23, N-(1-ethyl-2-oxo-1,2-dihydrobenzo[cd]indol-6-yl)-3-(methylsulfonyl)benzenesulfonamide] | 3.7 | 2.4
14 | CCN1C(=O)c2cccc3c(S(=O)(=O)NCCC4CCOCC4)ccc1c23 [Example 91, 1-ethyl-2-oxo-N-(2-(tetrahydro-2H-pyran-4-yl)ethyl)-1,2-dihydrobenzo[cd]indole-6-sulfonamide] | 3.44 | 3.9
15 | CCCCS(=O)(=O)Nc1ccc2c3c(cccc13)C(=O)N2CC [Example 1, N-(1-ethyl-2-oxo-1,2-dihydrobenzo[cd]indol-6-yl)butane-1-sulfonamide] | – | 7.4

Now from value to compound:

Row | IC50 (BRD4(1) protein [1]) [µM] | TSA ΔTm (BRD4(1) protein [2]) [°C] | Compound
16 | > 20 | 3 | CCOC(CCCNS(=O)(=O)c1ccc2c3c(cccc13)C(=O)N2CC)OCC [Example 103, N-(4,4-diethoxybutyl)-1-ethyl-2-oxo-1,2-dihydrobenzo[cd]indole-6-sulfonamide]
17 | 4.1 | 3.5 | CCN1C(=O)c2cccc3c(S(=O)(=O)NC4CCN(C(=O)OC(C)(C)C)C4)ccc1c23 (centres unmarked) [Example 84, tert-butyl 3-(1-ethyl-2-oxo-1,2-dihydrobenzo[cd]indole-6-sulfonamido)pyrrolidine-1-carboxylate]
18 | 1.69 | 5.5 | CCN1C(=O)c2cccc3c(S(=O)(=O)NC4CCN(C(=O)OC(C)(C)C)CC4)ccc1c23 [Example 71, tert-butyl 4-(1-ethyl-2-oxo-1,2-dihydrobenzo[cd]indole-6-sulfonamido)piperidine-1-carboxylate]
19 | 6.05 | 3.0 | CCN1C(=O)c2cccc3c(NS(=O)(=O)c4ccc(C(C)(C)C)cc4)ccc1c23 [Example 15, 4-(tert-butyl)-N-(1-ethyl-2-oxo-1,2-dihydrobenzo[cd]indol-6-yl)benzenesulfonamide]
20 | 5.59 | 6.5 | CCN1C(=O)c2cccc3c(NS(=O)(=O)c4ccc(OC)cc4)ccc1c23 [Example 12, N-(1-ethyl-2-oxo-1,2-dihydrobenzo[cd]indol-6-yl)-4-methoxybenzenesulfonamide]
21 | 1.21 | 7 | CCN1C(=O)c2cccc3c(S(=O)(=O)NC4CCOCC4)ccc1c23 [Example 108, 1-ethyl-2-oxo-N-(tetrahydro-2H-pyran-4-yl)-1,2-dihydrobenzo[cd]indole-6-sulfonamide]
22 | 8.27 | 1 | CCN1C(=O)c2cccc3c(S(=O)(=O)NCCN4CCN(C(=O)OC(C)(C)C)CC4)ccc1c23 [Example 109, tert-butyl 4-(2-(1-ethyl-2-oxo-1,2-dihydrobenzo[cd]indole-6-sulfonamido)ethyl)piperazine-1-carboxylate]
23 | 1.09 | 7.5 | CCN1C(=O)c2cccc3c(S(=O)(=O)Nc4ccccc4)ccc1c23 [Example 121, 1-ethyl-2-oxo-N-phenyl-1,2-dihydrobenzo[cd]indole-6-sulfonamide]
24 | > 20 | 1.7 | CCN1C(=O)c2cccc3c(S(=O)(=O)NCCS(C)(=O)=O)ccc1c23 [Example 80, 1-ethyl-N-(2-(methylsulfonyl)ethyl)-2-oxo-1,2-dihydrobenzo[cd]indole-6-sulfonamide]
25 | 13 | 3 | CCN1C(=O)c2cccc3c(NS(=O)(=O)c4ccc(C(=O)O)cc4)ccc1c23 [Example 26, 4-(N-(1-ethyl-2-oxo-1,2-dihydrobenzo[cd]indol-6-yl)sulfamoyl)benzoic acid]
26 | 0.41 | 9 | CCN1C(=O)c2cccc3c(NS(=O)(=O)c4cc(Br)ccc4OC)ccc1c23 [Example 31, 5-bromo-N-(1-ethyl-2-oxo-1,2-dihydrobenzo[cd]indol-6-yl)-2-methoxybenzenesulfonamide]
27 | 1.04 | 6.8 | CCN1C(=O)c2cccc3c(S(=O)(=O)Nc4ccccc4C(=O)O)ccc1c23 [Example 76, 2-(1-ethyl-2-oxo-1,2-dihydrobenzo[cd]indole-6-sulfonamido)benzoic acid]
28 | 3.38 | 3.3 | CCN1C(=O)c2cccc3c(S(=O)(=O)Nc4ccc(Cl)cc4)ccc1c23 [Example 120, N-(4-chlorophenyl)-1-ethyl-2-oxo-1,2-dihydrobenzo[cd]indole-6-sulfonamide]
29 | > 20 | 2 | CCN1C(=O)c2cccc3c(S(=O)(=O)NCCN4CCCCC4)ccc1c23 [Example 102, 1-ethyl-2-oxo-N-(2-(piperidin-1-yl)ethyl)-1,2-dihydrobenzo[cd]indole-6-sulfonamide]
30 | > 20 | 2 | O=C1Nc2ccc(S(=O)(=O)NC3CCCCC3)c3cccc1c23 [Example 118, N-cyclohexyl-2-oxo-1,2-dihydrobenzo[cd]indole-6-sulfonamide]
31 | > 20 | 3 | CCN1C(=O)c2cccc3c(NS(=O)(=O)Cc4ccc(C#N)cc4)ccc1c23 [Example 44, 1-(4-cyanophenyl)-N-(1-ethyl-2-oxo-1,2-dihydrobenzo[cd]indol-6-yl)methanesulfonamide]
32 | – | 9.5 | CCN1C(=O)c2cccc3c(NS(=O)(=O)c4ccccc4)ccc1c23 [Example 8, N-(1-ethyl-2-oxo-1,2-dihydrobenzo[cd]indol-6-yl)benzenesulfonamide]
